In patent publication US11041859B2, “Methods of identifying SENP1 inhibitors” (priority 2013, dated 2021):

Test system: HeLa cells
Assay: Accumulation of SUMOylated proteins in HeLa cells (Western blot, 48 hours)
Type: cell-based

## Nc1ccc2ccccc2c1/N=N/c1ccc(/C=C/c2ccc(/N=N/c3c(N)ccc4ccccc34)cc2S(=O)(=O)O)c(S(=O)(=O)O)c1 [SPI-01]
  accumulation of SUMO-1 conjugates in cells: less significant effects
Increasing concentrations
  accumulation of SUMO-2/3 conjugates in cells: accumulation correlated with inhibitor concentration
